# Source: patent publication US6451733B1, “Synergistic herbicidal methods and compositions” (BASF Aktiengesellschaft, priority 1999, dated 2002)
# What was measured:
# Test in all cases: Field trial, post-emergence weed control
# Format in all cases: in vivo
# [1] = system: Brassica napus (imidazolinone tolerant)
# Experimental: (§1) Synergism of the combination is then determined by comparing the observed response of the combination to the expected (or predicted) response as calculated from the observed responses of each individual component alone. If the observed response of the combination is greater than the expected (or predicted) response then the combination is said to be synergistic and falls within the definition of synergistic effect as previously defined.
# (§2) In similar manner for the case of three-way combination, C3; is composed of component X plus component Y plus […] and Obs. designates the observed response of the combination C3. [formula]
# (§3) Grassy and broadleaved weeds are either seeded perpendicular to the direction of the crop or broadcast in early to mid-May. The crop is seeded after the weed seed. Row width is 18 cm. The seed is drilled in with a Roger's 1.8 m width drill to a depth of 5 cm.
# (§4) All trials employ standard accepted weed science procedures. Applications are made with a Roger's CO2-powered shrouded sprayer. Test design is a modified randomized complete block design with four replications. All applications are made post-emergence to the weeds and crop.
# (§5) The test solutions are prepared by tank-mixing sufficient quantities of aqueous solutions and/or dispersions of the test compounds.
# (§6) The treated plots are examined at intervals during the growing season and rated for percent control of weeds and crop injury. The data listed is an average of the replicates for that treatment. The Colby method of analysis is used to determine the resultant biological effect of the combination treatment as compared to the biological effect of each component when applied alone.
# [2] = system: Stellaria media
# Experimental: as §1, with “In the following examples, synergism for two-way combinations is determined by the Colby^1 method, i.e. the expected (or predicted) response of the combination is calculated by taking the product of the observed response for each individual component of the combination when applied alone divided by 100 and subtracting this value from the sum of the observed response for each component when applied alone. Synergism” for “Synergism”
# as §2, §3, §4, §5, §6
# [3] = system: Galium aparine
# Experimental: as §1, with “In the following examples, synergism for two-way combinations is determined by the Colby^1 method, i.e. the expected (or predicted) response of the combination is calculated by taking the product of the observed response for each individual component of the combination when applied alone divided by 100 and subtracting this value from the sum of the observed response for each component when applied alone. Synergism” for “Synergism”
# as §2, §3, §4, §5, §6
# [4] = system: Polygonum (smartweed) spp.
# Experimental: as §1, with “In the following examples, synergism for two-way combinations is determined by the Colby^1 method, i.e. the expected (or predicted) response of the combination is calculated by taking the product of the observed response for each individual component of the combination when applied alone divided by 100 and subtracting this value from the sum of the observed response for each component when applied alone. Synergism” for “Synergism”
# as §2, §3, §4, §5, §6
# [5] = system: Chenopodium album
# Experimental: as §1, with “In the following examples, synergism for two-way combinations is determined by the Colby^1 method, i.e. the expected (or predicted) response of the combination is calculated by taking the product of the observed response for each individual component of the combination when applied alone divided by 100 and subtracting this value from the sum of the observed response for each component when applied alone. Synergism” for “Synergism”
# as §2, §3, §4, §5, §6
# [6] = system: Brassica napus
# Experimental: as §1, with “In the following examples, synergism for two-way combinations is determined by the Colby^1 method, i.e. the expected (or predicted) response of the combination is calculated by taking the product of the observed response for each individual component of the combination when applied alone divided by 100 and subtracting this value from the sum of the observed response for each component when applied alone. Synergism” for “Synergism”
# as §2, §3, §4, §5, §6
# [7] = system: Sinapis arvensis
# Experimental: as §1, with “In the following examples, synergism for two-way combinations is determined by the Colby^1 method, i.e. the expected (or predicted) response of the combination is calculated by taking the product of the observed response for each individual component of the combination when applied alone divided by 100 and subtracting this value from the sum of the observed response for each component when applied alone. Synergism” for “Synergism”
# as §2, §3, §4, §5, §6
# [8] = system: Setaria viridis
# Experimental: as §1, with “In the following examples, synergism for two-way combinations is determined by the Colby^1 method, i.e. the expected (or predicted) response of the combination is calculated by taking the product of the observed response for each individual component of the combination when applied alone divided by 100 and subtracting this value from the sum of the observed response for each component when applied alone. Synergism” for “Synergism”
# as §2, §3, §4, §5, §6
# [9] = system: Salsola kali
# Experimental: as §1, with “In the following examples, synergism for two-way combinations is determined by the Colby^1 method, i.e. the expected (or predicted) response of the combination is calculated by taking the product of the observed response for each individual component of the combination when applied alone divided by 100 and subtracting this value from the sum of the observed response for each component when applied alone. Synergism” for “Synergism”
# as §2, §3, §4, §5, §6
# [10] = system: Avena fatua
# Experimental: as §1, with “In the following examples, synergism for two-way combinations is determined by the Colby^1 method, i.e. the expected (or predicted) response of the combination is calculated by taking the product of the observed response for each individual component of the combination when applied alone divided by 100 and subtracting this value from the sum of the observed response for each component when applied alone. Synergism” for “Synergism”
# as §2, §3, §4, §5, §6
# [11] = system: Polygonum convolvulus
# Experimental: as §1, with “In the following examples, synergism for two-way combinations is determined by the Colby^1 method, i.e. the expected (or predicted) response of the combination is calculated by taking the product of the observed response for each individual component of the combination when applied alone divided by 100 and subtracting this value from the sum of the observed response for each component when applied alone. Synergism” for “Synergism”
# as §2, §3, §4, §5, §6
# [12] = system: Kochia scoparia
# Experimental: as §1, with “In the following examples, synergism for two-way combinations is determined by the Colby^1 method, i.e. the expected (or predicted) response of the combination is calculated by taking the product of the observed response for each individual component of the combination when applied alone divided by 100 and subtracting this value from the sum of the observed response for each component when applied alone. Synergism” for “Synergism”
# as §2, §3, §4, §5, §6
# [13] = system: Vaccaria pyramaidata
# Experimental: as §1, with “In the following examples, synergism for two-way combinations is determined by the Colby^1 method, i.e. the expected (or predicted) response of the combination is calculated by taking the product of the observed response for each individual component of the combination when applied alone divided by 100 and subtracting this value from the sum of the observed response for each component when applied alone. Synergism” for “Synergism”
# as §2, §3, §4, §5, §6
# [14] = system: Galeopsis tetrahit
# Experimental: as §1, with “In the following examples, synergism for two-way combinations is determined by the Colby^1 method, i.e. the expected (or predicted) response of the combination is calculated by taking the product of the observed response for each individual component of the combination when applied alone divided by 100 and subtracting this value from the sum of the observed response for each component when applied alone. Synergism” for “Synergism”
# as §2, §3, §4, §5, §6
# [15] = system: Amaranthus retroflexus
# Experimental: as §1, with “In the following examples, synergism for two-way combinations is determined by the Colby^1 method, i.e. the expected (or predicted) response of the combination is calculated by taking the product of the observed response for each individual component of the combination when applied alone divided by 100 and subtracting this value from the sum of the observed response for each component when applied alone. Synergism” for “Synergism”
# as §3, §4, §5, §6
compound,measurement,setting,value
"O=C(O)COc1ccc(Cl)cc1Cl [2,4-D, 2,4-dichlorophenoxyacetic acid]",Percent Control,[1]; 280 g/ha,94%
same,Percent Control,[2]; 280 g/ha,10%
same,Percent Control,[3]; 280 g/ha,43%
same,Percent Control,[4]; 280 g/ha,53%
same,Percent Control,[5]; 280 g/ha,91%
same,Percent Control,[6]; 280 g/ha,93%
same,Percent Control,[7]; 280 g/ha,92%
same,Percent Control,[8]; 280 g/ha,0%
same,Percent Control,[9]; 280 g/ha,35%
same,Percent Control,[10]; 280 g/ha,2%
same,Percent Control,[11]; 280 g/ha,48%
same,Percent Control,[12]; 280 g/ha,52%
same,Percent Control,[13]; 280 g/ha,51%
same,Percent Control,[14]; 280 g/ha,2%
O=C(O)c1nc(Cl)ccc1Cl [clopyralid],Percent Control,[1]; 150 g/ha,8%
same,Percent Control,[2]; 150 g/ha,10%
same,Percent Control,[3]; 150 g/ha,0%
same,Percent Control,[5]; 150 g/ha,51%
same,Percent Control,[6]; 150 g/ha,12%
same,Percent Control,[7]; 150 g/ha,16%
CCOC(=O)[C@@H](C)Oc1ccc(Oc2nc3ccc(Cl)cc3o2)cc1 [fenoxaprop-p-ethyl],Percent Control,[1]; 72 g/ha,0%
same,Percent Control,[5]; 72 g/ha,0%
same,Percent Control,[6]; 72 g/ha,0%
same,Percent Control,[7]; 72 g/ha,0%
same,Percent Control,[8]; 72 g/ha,98%
same,Percent Control,[11]; 72 g/ha,0%
same,Percent Control,[13]; 72 g/ha,0%
same,Percent Control,[15]; 72 g/ha,9%
O=C(Nc1ccc(F)cc1)c1cccc(Oc2cccc(C(F)(F)F)c2)n1 [picolinafen],Percent Control,[1]; 50 g/ha,65%
same,Percent Control,[2]; 50 g/ha,64%
same,Percent Control,[3]; 50 g/ha,28%
same,Percent Control,[4]; 50 g/ha,26%
same,Percent Control,[5]; 50 g/ha,57%
same,Percent Control,[6]; 50 g/ha,70%
same,Percent Control,[7]; 50 g/ha,78%
same,Percent Control,[8]; 50 g/ha,14%
same,Percent Control,[9]; 50 g/ha,56%
same,Percent Control,[10]; 50 g/ha,5%
same,Percent Control,[11]; 50 g/ha,54%
same,Percent Control,[12]; 50 g/ha,59%
same,Percent Control,[13]; 50 g/ha,63%
same,Percent Control,[14]; 50 g/ha,59%
same,Percent Control,[15]; 50 g/ha,90%
CCO/N=C(\CC)C1=C(O)CC(c2c(C)cc(C)cc2C)CC1=O (centres unmarked) [tralkoxydim],Percent Control,[1]; 200 g/ha,0%
same,Percent Control,[5]; 200 g/ha,0%
same,Percent Control,[6]; 200 g/ha,0%
same,Percent Control,[7]; 200 g/ha,0%
same,Percent Control,[10]; 200 g/ha,97%
same,Percent Control,[11]; 200 g/ha,0%
same,Percent Control,[13]; 200 g/ha,0%
same,Percent Control,[15]; 200 g/ha,1%
imazamethabenz methyl,Percent Control,[1]; 400 g/ha,0%
same,Percent Control,[2]; 400 g/ha,8%
same,Percent Control,[3]; 400 g/ha,48%
same,Percent Control,[4]; 400 g/ha,76%
same,Percent Control,[5]; 400 g/ha,18%
same,Percent Control,[8]; 400 g/ha,10%
same,Percent Control,[9]; 400 g/ha,9%
same,Percent Control,[10]; 400 g/ha,88%
same,Percent Control,[12]; 400 g/ha,31%
same,Percent Control,[13]; 400 g/ha,20%
same,Percent Control,[14]; 400 g/ha,4%
